Earlier results on one sequence are cited in article PMC9889658, “The structure of MadC from Clostridium maddingley reveals new insights into class I lanthipeptide cyclases” (Frontiers in Microbiology, 2023).

pKd: −log10 of the molar value.

The series has as its target NisB. The settings on record: dependent on maturation state; ref Mavaro et al., 2011; read-out: binding affinity. From the text:
This implies a higher relevance of the LP comp ...

For the sequence “MSTKDFNLDLVSVSKKDSGASPRITSISLCTPGCKTGALMGCNMKTATCHCSIHVSK [unmodified prenisin, unmodified nisin precursor peptide]”, the pKd is 6.00.
